One series addresses MATE2-K (Homo sapiens, UniProt Q86VL8). Kind of series: MATE2-K inhibition, tetraethylammonium uptake in transfected HEK293 cells. The protocol: (§1) The pre-incubation solutions were removed, and incubation solutions containing the inhibitors and probe substrates (or transport buffer containing an equal volume of vehicle control and probe substrates) were added and incubated at 37°C for 2 min (5 min for OATP1B3). The probe substrate for OAT1 was 4-aminohippuric acid (10 μM), for OAT3 was estrone 3-sulfate (10 μM), for OCT2 was metformin (100 μM), for OATP1B1 was β-estradiol 17-(β-D-glucuronide) (5 μM), for OATP1B3 was β-estradiol 17-(β-D-glucuronide) (10 μM), and for MATE1 and MATE2-K was tetraethylammonium (10 μM). After incubation, cells were washed three times with ice-cold transport buffer (25 mM HEPES, pH 7.4, pH 8.0 for overexpressing MATE1 and MATE2-K HEK293 cells) and lysed in distilled water. The concentrations of probe substrates were determined by LC-MS/MS, and a BCA Kit (Solarbio ®Life Sciences, Beijing, China) was used to determine the protein content in the cell lysate.
(§2) where C is the concentration of the drug in the cell lysate (nM), P is the protein concentration of the cell lysate (mg/mL), and T is the incubation time (minute). Uptake ratetest compound is the uptake rate of the substrate in the presence of the test compound. Uptake ratevehicle control is the uptake rate of the substrate in the presence of the vehicle control. Uptake ratepassive is the uptake rate of the substrate in the presence of the positive inhibitor at the top test concentration.

For the next series, the target named is T1, MATE1 (Homo sapiens, UniProt Q96FL8).
T1 sequence (Q96FL8 1-570): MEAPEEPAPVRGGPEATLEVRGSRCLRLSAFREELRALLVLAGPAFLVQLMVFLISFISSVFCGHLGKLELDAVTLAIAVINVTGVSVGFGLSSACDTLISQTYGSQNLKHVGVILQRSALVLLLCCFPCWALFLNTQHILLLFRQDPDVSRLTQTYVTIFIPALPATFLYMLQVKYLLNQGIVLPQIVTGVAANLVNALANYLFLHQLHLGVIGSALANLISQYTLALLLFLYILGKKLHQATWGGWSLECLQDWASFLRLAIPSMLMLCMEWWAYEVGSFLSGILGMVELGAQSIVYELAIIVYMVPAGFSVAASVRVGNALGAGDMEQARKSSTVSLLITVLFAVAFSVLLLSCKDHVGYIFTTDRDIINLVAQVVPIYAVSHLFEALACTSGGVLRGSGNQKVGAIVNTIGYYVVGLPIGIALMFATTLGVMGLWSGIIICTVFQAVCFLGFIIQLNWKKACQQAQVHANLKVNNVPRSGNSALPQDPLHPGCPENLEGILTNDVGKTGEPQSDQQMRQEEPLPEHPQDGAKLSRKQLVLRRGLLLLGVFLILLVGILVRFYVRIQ
In words: MATE1 inhibition, tetraethylammonium uptake in transfected HEK293 cells. On the procedure: as §1, §2

A short description of series [1]: Excretion/mass balance of [14C] amdizalisib in BDI and BDC rats. It is filed as in vivo, SD rat. The conditions noted are these: for Cumulative recovery of radioactivity, Bile / Cumulative recovery of radioactivity, Cage washing / Cumulative recovery of radioactivity, Feces / Cumulative recovery of radioactivity, Total recovery / Cumulative recovery of radioactivity, Urine: PO 5 mg/100 μCi/kg; for unchanged drug recovered in bile / unchanged drug recovered in feces / unchanged drug recovered in urine: % of administered dose. The protocol: Rats were divided into seven groups according to the sampling time points, with six rats (male: female = 1: 1) in each group, except that Group 1 h used three male rats and Group 2 h and Group 72 h used three female rats, respectively. […] Plasma and tissue samples were collected at 0.5, 1, 6, 24, and 48 h after dosing for male rats and at 0.5, 2, 6, 24, 48, and 72 h after dosing for female rats. […] After blood collection, the rats were sacrificed, and 18 tissues, namely, brain, breast, skin, fat, testis, ovary, bladder, pancreas, skeletal muscle, heart, lung, kidney, liver, stomach, small intestine, colon, spleen, and spinal cord, were removed from the rats at designated time points. These tissues were washed with saline and dried with filter paper. Aliquots of tissues were accurately weighed and then homogenized in 50% (v/v) methanol/water (10 mL/1 g tissue). […] Twelve rats (207–277 g) were divided into the bile-duct cannulation (BDC) group and the bile-duct intact (BDI) group, with six rats (male: female = 1:1) in each group. […] Urine and feces were collected at pre-dose (0) and 24 h through 168 h post-dose (the first 24 h interval split into 0–8 and 8–24 h for urine) for BDI rats. For BDC rats, urine and feces were collected at pre-dose (0) and 72 h post-dose (the first 24 h interval split into 0–8 and 8–24 h for urine), and bile was collected at pre-dose (0), 0–4, 4–8, 8–24, 24–48, and 48–72 h post-dose. Cage-washing fluids were collected at 24 h intervals until the last sampling time point for both groups. Another BDI rat was orally administered a blank vehicle (0.5% CMC-Na, 0.5 g/100 mL), and urine and feces were collected 24 h post-dose. The weight of the collected samples was recorded. Samples were stored in a −20°C freezer until analysis.
For the determination of drug-derived radioactivity in the excretion study in SD rats, urine (0.1 g), bile (0.025 g), and cage wash samples (1 g) were mixed well with scintillation solution (5 mL for urine and cage wash samples; 10 mL for bile samples) and directly analyzed by a liquid scintillation counter (LSC, Perkin Elmer, Waltham, MA, United States). An appropriate amount of isopropanol: water (1:1, v/v) was added to the feces samples and thoroughly homogenized. Pooled fecal homogenate (0.3 g) was combusted in a Sample Oxidizer 501 (RJ Harvey Instrument, Tappan, NY, USA), and the generated ^14CO2 was trapped in a 15 mL scintillation solution and further analyzed for radioactivity by LSC using a Tri-Carb 3110 TR counter (Perkin Elmer, Waltham, MA, United States). The radioactive concentrations of urine, bile, feces, and cage washings were calculated with the counted disintegration per minute (DPM). The percentage of administered dose recovered (% dose recovered) was calculated using the following equation: % dose recovered=Total radioactivity DPM in sample/ radioactivity DPM in dosing formulation×100.

The next series has as its target T2, OAT3 (Homo sapiens, UniProt Q8TCC7).
T2 sequence (Q8TCC7 1-542): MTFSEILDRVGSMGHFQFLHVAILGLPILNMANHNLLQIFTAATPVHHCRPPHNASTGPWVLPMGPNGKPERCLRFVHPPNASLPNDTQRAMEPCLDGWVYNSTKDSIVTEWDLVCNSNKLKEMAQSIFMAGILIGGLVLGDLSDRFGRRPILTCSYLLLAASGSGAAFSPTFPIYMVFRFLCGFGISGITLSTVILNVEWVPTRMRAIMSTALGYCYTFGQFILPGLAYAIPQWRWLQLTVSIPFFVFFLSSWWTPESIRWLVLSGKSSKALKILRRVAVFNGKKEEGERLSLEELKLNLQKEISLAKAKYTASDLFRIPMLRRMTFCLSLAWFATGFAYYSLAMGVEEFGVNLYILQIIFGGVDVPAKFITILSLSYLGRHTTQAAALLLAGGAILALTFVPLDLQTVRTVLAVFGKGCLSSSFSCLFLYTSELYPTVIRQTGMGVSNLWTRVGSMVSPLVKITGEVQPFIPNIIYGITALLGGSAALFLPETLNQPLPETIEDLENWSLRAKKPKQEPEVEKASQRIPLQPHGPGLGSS
Kind of series: OAT3 inhibition, estrone 3-sulfate uptake in transfected HEK293 cells. On the procedure:
as §1, §2

Where [2] appears, read: BDC rat, 0–72 h, female (n = 3).
Setting [3] is: BDC rat, 0–72 h, male and female (n = 6).
[4] abbreviates: BDI rat, 0–168 h, female (n = 3).
Setting [5] is: BDI rat, 0–168 h, male and female (n = 6).

The results in this text go back to publication PMC11211886 (Frontiers in Pharmacology, 2024).

Several values for one entry are separate records, joined by “and”; a condition that tells them apart may be missing. Identical values can stand only once. Some results are limits rather than exact numbers.

Sequence of MATE2-K (Q86VL8 1-566 isoform Q86VL8-3): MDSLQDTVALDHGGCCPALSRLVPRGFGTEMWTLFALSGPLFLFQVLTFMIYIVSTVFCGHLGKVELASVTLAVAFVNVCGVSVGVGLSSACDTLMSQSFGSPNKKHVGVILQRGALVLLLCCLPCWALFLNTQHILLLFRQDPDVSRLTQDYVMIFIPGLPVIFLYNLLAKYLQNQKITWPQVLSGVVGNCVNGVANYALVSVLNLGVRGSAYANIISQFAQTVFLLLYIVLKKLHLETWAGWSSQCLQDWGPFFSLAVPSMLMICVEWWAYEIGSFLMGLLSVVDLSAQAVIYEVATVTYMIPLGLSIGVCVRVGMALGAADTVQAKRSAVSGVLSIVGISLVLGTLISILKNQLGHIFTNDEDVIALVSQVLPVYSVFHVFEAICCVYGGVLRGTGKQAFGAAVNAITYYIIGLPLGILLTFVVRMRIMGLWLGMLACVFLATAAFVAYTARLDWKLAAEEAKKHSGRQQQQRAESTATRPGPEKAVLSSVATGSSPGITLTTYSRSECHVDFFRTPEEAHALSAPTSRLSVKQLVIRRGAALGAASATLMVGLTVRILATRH

What is called IC50 is the concentration that inhibits the measured activity by half. A high value points to a need for much substance. As a reminder, the inhibition is how much of the control response was suppressed. Low readings indicate little suppression, high ones strong suppression. `CCc1nc(N)nc(N)c1-c1ccc(Cl)cc1` [Pyrimethamine, reference compound]: the IC50 was 13.6 nM on MATE2-K and 12.5 nM on MATE1. Moreover, the Percentage transported at MATE2-K (MATE2-K, compound 1 μM) is on record as 0.00%; at MATE1 (MATE1, compound 1 μM), 0.00%. Besides, the Uptake rate at MATE2-K (MATE2-K, compound 1 μM) turned out to be 7.55±1.58 pmol/mg protein/min; at MATE1 (MATE1, compound 1 μM), 12.5±2.43 pmol/mg protein/min. Further, the inhibition at 2 min, 1 µM on MATE2-K (human, pH 8) was determined as 100%; on MATE1 (human, pH 8), 100%.
[^14C] amdizalisib: in series [1] (setting [2]), the “Cumulative recovery of radioactivity, Bile” value (“Cumulative recovery … Bile” for short) amounted to 49.81 ± 2.07%; the “Cumulative recovery of radioactivity, Cage washing” value (shortened to “Cumulative recovery … Cage washing”) is recorded as 2.24 ± 1.90%; the “Cumulative recovery of radioactivity, Feces” value (“Cumulative recovery … Feces” for short) was 19.81 ± 4.98%; the “Cumulative recovery of radioactivity, Total recovery” value (“Cumulative recovery … Total recovery” for short) stood at 90.31 ± 0.91%. In addition, the “Cumulative recovery of radioactivity, Urine” value (from here on “Cumulative recovery … Urine”) in series [1] (setting [2]) is listed as 18.45 ± 4.01%. Besides, in series [1] (BDC rat, 0–72 h, male (n = 3)), the “Cumulative recovery … Bile” value was 58.17 ± 4.68%; the “Cumulative recovery … Cage washing” value came to 0.89 ± 0.37%; the “Cumulative recovery … Feces” value stood at 8.98 ± 2.64%; the “Cumulative recovery … Total recovery” value was found to be 91.99 ± 1.88%. Further, in series [1] (BDC rat, 0–72 h, male (n = 3)), the “Cumulative recovery … Urine” value came to 23.96 ± 8.70%. For the same compound, in series [1] (setting [3]), the “Cumulative recovery … Bile” value was determined as 53.99 ± 5.61%; the “Cumulative recovery … Cage washing” value amounted to 1.57 ± 1.43%; the “Cumulative recovery … Feces” value is on record as 14.40 ± 6.92%; the “Cumulative recovery … Total recovery” value is 91.15% and 91.15 ± 1.61%. The “Cumulative recovery … Urine” value in series [1] (setting [3]) worked out at 21.20 ± 6.77%. In series [1] (BDC rats, 0–72 h, PO 5 mg/kg), the “fraction of the oral dose absorbed (bile + urine radioactivity)” value was “at least 75.19%”. For the same compound, in series [1] (setting [4]), the “Cumulative recovery … Cage washing” value is given as 4.72 ± 2.41%; the “Cumulative recovery … Feces” value is 71.15 ± 0.22%; the “Cumulative recovery … Total recovery” value is 91.59 ± 0.97%; the “Cumulative recovery … Urine” value was 15.72 ± 2.62%. Further, in series [1] (BDI rat, 0–168 h, male (n = 3)), the “Cumulative recovery … Cage washing” value came to 2.84 ± 0.17%; the “Cumulative recovery … Feces” value is reported as 63.14 ± 3.98%; the “Cumulative recovery … Total recovery” value is listed as 90.69 ± 1.16%; the “Cumulative recovery … Urine” value came to 24.71 ± 4.46%. In series [1] (setting [5]), the “Cumulative recovery … Cage washing” value was 3.78 ± 1.84%; the “Cumulative recovery … Feces” value is reported as 67.15 ± 5.06%; the “Cumulative recovery … Total recovery” value was 91.14% and 91.14 ± 1.07%; the “Cumulative recovery … Urine” value was determined as 20.21 ± 5.91%. Further, the total radioactivity recovered result in series [1] (BDI rats, within 48 h post-dose) is reported as “over 80%”. Besides, in series [1] (female rats), the “unchanged drug recovered in bile” value is given as 4.70%, the “unchanged drug recovered in feces” value was 29.80% and the “unchanged drug recovered in urine” value came to 0.03%. Besides, in series [1] (male rats), the “unchanged drug recovered in bile” value worked out at 2.69%, the “unchanged drug recovered in feces” value came to 23.20% and the “unchanged drug recovered in urine” value is on record as less than 0.01%.
As for `CCCN(CCC)S(=O)(=O)c1ccc(C(=O)O)cc1` [Probenecid, reference compound], at OAT3 (OAT3, compound 100 μM), the Percentage transported turned out to be 0.00% and the Uptake rate was 19.5±2.26 pmol/mg protein/min. The compound also yielded an inhibition at 2 min, 100 µM at OAT3 (human, pH 7.4) of 100%.
